Results: patent US4460582A, “3-Carboxybenzyl cephems” (Beecham Group P.L.C., priority 1981, dated 1984)
Counter-ions that a name gives are not always drawn.

Legend:
Assay type in all cases: cell-based
[1] = tested on: Pseudomonas aeruginosa A; assay: MIC in nutrient broth
Excerpt: (§1) The minimum inhibitory concentrations (MIC) of the
(§2) compound of Examples 2 and 4 found necessary to prevent
(§3) growth of various bacteria in nutrient broth were as […]

[2] = tested on: Salmonella typhimurium CT 10; assay: MIC in nutrient broth; settings: Salmonella enterica
Excerpt: as §1, §2, §3

[3] = tested on: Staphylococcus aureus Oxford; assay: MIC in nutrient broth
Excerpt: as §1, §2, §3

[4] = tested on: Serratia marcescens US 20; assay: MIC in nutrient broth; settings: US20
Excerpt: as §1, §2, §3

[5] = tested on: Proteus mirabilis 977; assay: MIC in nutrient broth
Excerpt: as §1, §2, §3

[6] = tested on: Shigella sonnei MB 11967; assay: MIC in nutrient broth; settings: MB11967
Excerpt: as §1, §2, §3

[7] = tested on: Klebsiella aerogenes A; assay: MIC in nutrient broth
Excerpt: as §1, §2, §3

[8] = tested on: Enterobacter cloacae N 1; assay: MIC in nutrient broth; settings: N1
Excerpt: as §1, §2, §3

[9] = tested on: Streptococcus pyogenes CN 10; assay: MIC in nutrient broth; settings: CN10
Excerpt: as §1, §2, §3

[10] = tested on: Staphylococcus aureus Russell; assay: MIC in nutrient broth
Excerpt: as §1, §2, §3

[11] = tested on: Streptococcus faecalis I; assay: MIC in nutrient broth; settings: Enterococcus faecalis
Excerpt: as §1, §2, §3

[12] = tested on: Escherichia coli JT 39 (R^+); assay: MIC in nutrient broth
Excerpt: as §1, §2, §3

[13] = tested on: Escherichia coli 0111; assay: MIC in nutrient broth
Excerpt: as §1, §2, §3

[14] = tested on: Proteus morganii I 580; assay: MIC in nutrient broth; settings: Morganella morganii, I580
Excerpt: as §1, §2, §3

[15] = tested on: Streptococcus pneumoniae CN 33; assay: MIC in nutrient broth; settings: CN33
Excerpt: as §1, §2, §3

[16] = tested on: Bacillus subtilis A; assay: MIC in nutrient broth
Excerpt: as §1, §2, §3

[17] = tested on: Citrobacter freundii E 8; assay: MIC in nutrient broth; settings: E8
Excerpt: as §1, §2, §3

[18] = tested on: Proteus rettgeri WM 16; assay: MIC in nutrient broth; settings: Providencia rettgeri, WM16
Excerpt: as §1, §2, §3

[19] = tested on: Proteus vulgaris W 091; assay: MIC in nutrient broth; settings: W091
Excerpt: as §1, §2, §3

[20] = tested on: Enterobacter cloacae N1; assay: MIC on agar
Excerpt: (§4) The Minimum Inhibitory concentrations (MIC) of the compound
(§5) of Example 6 found necessary to prevent growth of various

[21] = tested on: Proteus rettgeri; assay: MIC on agar; settings: Providencia rettgeri
Excerpt: as §4, §5

[22] = tested on: Streptococcus pyogenes CN10; assay: MIC on agar
Excerpt: as §4, §5

[23] = tested on: Proteus mirabilis C977; assay: MIC on agar
Excerpt: as §4, §5

[24] = tested on: Staphylococcus aureus Oxford; assay: MIC on agar
Excerpt: as §4, §5

[25] = tested on: Pseudomonas aeruginosa Dalgleish; assay: MIC on agar
Excerpt: as §4, §5

[26] = tested on: Proteus morganii; assay: MIC on agar; settings: Morganella morganii
Excerpt: as §4, §5

[27] = tested on: Serratia marcescens US32; assay: MIC on agar
Excerpt: as §4, §5

[28] = tested on: Escherichia coli JT425; assay: MIC on agar
Excerpt: as §4, §5

[29] = tested on: Escherichia coli JT4; assay: MIC on agar
Excerpt: as §4, §5

[30] = tested on: Bacillus subtilis; assay: MIC on agar
Excerpt: as §4, §5

[31] = tested on: Pseudomonas aeruginosa NCTC 10662; assay: MIC on agar; settings: NCTC10662
Excerpt: as §4, §5

[32] = tested on: Klebsiella aerogenes A; assay: MIC on agar
Excerpt: as §4, §5

[33] = tested on: Staphylococcus aureus Russell; assay: MIC on agar
Excerpt: as §4, §5

[34] = tested on: Streptococcus faecalis I; assay: MIC on agar; settings: Enterococcus faecalis
Excerpt: as §4, §5

[35] = tested on: Neisseria catarrhalis 1502; assay: MIC on agar
Excerpt: as §4, §5

| Structure (SMILES) | MIC [1] | MIC [2] | MIC [3] | MIC [4] | MIC [5] | MIC [6] | MIC [7] | MIC [8] | MIC [10] | MIC [11] | MIC [12] | MIC [13] | MIC [14] | MIC [15] | MIC [16] | MIC [17] | MIC [18] | MIC [19] | other results |
| --- | --- | --- | --- | --- | --- | --- | --- | --- | --- | --- | --- | --- | --- | --- | --- | --- | --- | --- | --- |
| CO/N=C(\C(=O)N[C@@H]1C(=O)N2C(C(=O)O)=C(Cc3ccc(C(=O)O)cc3)CS[C@H]12)c1csc(N)n1 [Example 2, (6R,7R)-3-(4-Carboxybenzyl)-7-[2,Z-methoxyimino-2-(2-aminothiazol-4-yl)-acetamido]ceph-3-em-4-carboxylic acid trifluoroacetic acid salt] | > 100 µg/mL | 0.4 µg/mL | 12.5 µg/mL | 12.5 µg/mL | 0.8 µg/mL | 0.4 µg/mL | 0.2 µg/mL | 3.1 µg/mL | 12.5 µg/mL | > 100 µg/mL | 6.2 µg/mL | 6.2 µg/mL | 1.6 µg/mL | ≤ 0.1 µg/mL | 25 µg/mL | 25 µg/mL | 12.5 µg/mL | 12.5 µg/mL | MIC [9]: ≤ 0.1 µg/mL |
| CCO/N=C(\C(=O)N[C@@H]1C(=O)N2C(C(=O)O)=C(Cc3ccc(C(=O)O)cc3)CS[C@H]12)c1csc(N)n1 [Example 4, (6R,7R)-3-(4-Carboxybenzyl)-7-[2,Z-ethoxyimino-2-(2-aminothiazol-4-yl)-acetamido]-ceph-3-em-4-carboxylic acid trifluoroacetic acid salt] | > 100 µg/mL | 0.8 µg/mL | 3.1 µg/mL | 3.1 µg/mL | 0.2 µg/mL | 0.8 µg/mL | 0.1 µg/mL | 50 µg/mL | 6.2 µg/mL | > 100 µg/mL | 1.6 µg/mL | 3.1 µg/mL | 100 µg/mL | 6.2 µg/mL | 12.5 µg/mL | 100 µg/mL | 100 µg/mL | 3.1 µg/mL | – |
| CC(C)(O/N=C(\C(=O)N[C@@H]1C(=O)N2C(C(=O)O)=C(Cc3ccc(C(=O)O)cc3)CS[C@H]12)c1csc(N)n1)C(=O)O [Example 6, (6R,7R)-3-(4-Carboxybenzyl)-7-[2,Z-(2-carboxyprop-2-oxyimino)-2-(2-aminothiazol-4-yl)-acetamido]-ceph-3-em-4-carboxylic acid trifluoroacetic acid salt] | – | – | – | – | – | – | – | – | – | – | – | – | – | – | – | – | – | – | MIC [20]: 1 µg/mL; MIC [21]: 0.2 µg/mL; MIC [22]: 2.5 µg/mL; MIC [23]: 0.05 µg/mL; MIC [24]: 100 µg/mL; MIC [25]: 2.5 µg/mL; MIC [26]: 2.5 µg/mL; MIC [27]: 2.5 µg/mL; MIC [28]: 25 µg/mL; MIC [29]: 2.5 µg/mL; MIC [30]: > 100 µg/mL; MIC [31]: 5 µg/mL; MIC [32]: 0.2 µg/mL; MIC [33]: > 100 µg/mL; MIC [34]: > 100 µg/mL; MIC [35]: < 0.02 µg/mL |
